Reference: US20140171431A1, “AZOLE HETEROCYCLIC COMPOUND, PREPARATION METHOD, PHARMACEUTICAL COMPOSITION AND USE” (priority 2011, published 2014)
Where two headings read alike, the source gives them in different places.

Columns and labels:
atherosclerotic plaque = details: diabetic/hypercholesterolemic swine, Wilensky et al.; cited from earlier work
Lp-PLA2 in rabbit serum = target: T1, Lp-PLA2 in rabbit serum (Oryctolagus cuniculus, UniProt G1SE06); test: In vitro inhibitory activity towards the enzyme Lp-PLA2 in rabbit serum, [3H]PAF substrate; assay type: biochemical; details: 100 nM
T1 construct: from tissue; host or cells: rabbit serum
T1 sequence (G1SE06 22-423): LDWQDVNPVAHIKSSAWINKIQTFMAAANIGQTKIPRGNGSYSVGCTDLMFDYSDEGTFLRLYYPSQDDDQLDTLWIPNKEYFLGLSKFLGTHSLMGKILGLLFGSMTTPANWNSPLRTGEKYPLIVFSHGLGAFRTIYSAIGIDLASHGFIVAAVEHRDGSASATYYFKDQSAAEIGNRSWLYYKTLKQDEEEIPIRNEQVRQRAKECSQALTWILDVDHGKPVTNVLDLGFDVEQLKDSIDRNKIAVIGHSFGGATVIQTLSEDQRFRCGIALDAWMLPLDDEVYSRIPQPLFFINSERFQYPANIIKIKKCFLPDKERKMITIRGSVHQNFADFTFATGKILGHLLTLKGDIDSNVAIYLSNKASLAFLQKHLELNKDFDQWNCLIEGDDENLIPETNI

Lp-PLA2 in human serum = target: T2, Lp-PLA2 in human serum (Homo sapiens, UniProt Q13093); test: In vitro inhibitory activity towards the enzyme Lp-PLA2 in human serum, [3H]PAF substrate; assay type: biochemical; details: for inhibition at 0.01 µM: 10 nM; for inhibition at 0.1 µM: 100 nM
T2 construct: from tissue
T2 sequence (Q13093 22-441): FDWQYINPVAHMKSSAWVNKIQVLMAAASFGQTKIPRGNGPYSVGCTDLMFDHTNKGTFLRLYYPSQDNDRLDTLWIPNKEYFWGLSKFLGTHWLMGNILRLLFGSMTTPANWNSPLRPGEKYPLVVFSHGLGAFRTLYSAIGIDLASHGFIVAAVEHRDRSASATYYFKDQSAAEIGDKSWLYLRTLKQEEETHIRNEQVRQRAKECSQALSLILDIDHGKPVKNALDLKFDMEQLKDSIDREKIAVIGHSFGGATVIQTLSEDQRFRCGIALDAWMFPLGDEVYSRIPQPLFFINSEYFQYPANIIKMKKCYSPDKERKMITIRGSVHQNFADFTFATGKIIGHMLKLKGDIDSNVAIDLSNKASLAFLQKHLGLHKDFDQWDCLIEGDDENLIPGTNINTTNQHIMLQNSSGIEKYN
Outline: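 Human plasma was preincubated with compound 10 min at 37 °C in 50 mM HEPES, 150 mM NaCl, pH 7.4. Reaction started with 20 nM [3H]PAF, run 10 min at 37 °C, then extracted with CHCl3/MeOH (2:1); radioactivity of the supernatant was counted.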

[1] = rabbit serum, read-out: inhibition, %
[2] = human serum, read-out: inhibition, %
[3] = read-out: inhibitory rate towards the rabbit serum derived Lp-PLA2 enzyme
[4] = read-out: inhibitory rate towards the human serum derived Lp-PLA2 enzyme

| inhibition at 0.1 µM (Lp-PLA2 in rabbit serum; [1]) | inhibition at 0.01 µM (Lp-PLA2 in human serum; [2]) | inhibition at 0.1 µM (Lp-PLA2 in human serum; human serum) | inhibition at 0.1 µM (Lp-PLA2 in rabbit serum; [3]) | inhibition at 0.01 µM (Lp-PLA2 in human serum; [4]) | SMILES | atherosclerotic plaque progression (atherosclerotic plaque) |
| --- | --- | --- | --- | --- | --- | --- |
|  |  |  |  |  | CCN(CC)CCN(Cc1ccc(-c2ccc(C(F)(F)F)cc2)cc1)C(=O)Cn1c(SCc2ccc(F)cc2)nc(=O)c2c1CCC2 [darapladib, Darapladib] | remarkably reduced the atherosclerotic plaque progression |
| 77% | 59% | 91% |  |  | COC(=O)C(C)(C)NCc1nnc(Cn2c(SCc3ccc(F)cc3)nc(=O)c3c2CCC3)n1Cc1ccc(-c2ccc(C(F)(F)F)cc2)cc1 [Example 85, methyl-2-((5-((2-(4-fluorobenzylthio)-4-oxo-4,5,6,7-tetrahydro-1H-cyclopenta[d]pyrimidin-1-yl)methyl)-4-((4′-(trifluoromethyl)biphenyl-4-yl)methyl)-4H-1,2,4-triazol-3-yl)methylamino)-2-methylpropanoate] |  |
| 92% | 76% |  |  |  | CCN(CC)CCOCc1nnc(Cn2c(SCc3ccc(F)cc3)nc(=O)c3c2CCC3)n1Cc1ccc(-c2ccc(C(F)(F)F)cc2)cc1 [Example 125, 1-((5-((2-(diethylamino)ethoxy)methyl)-4-((4′-(trifluoromethyl)biphenyl-4-yl)methyl)-4H-1,2,4-triazol-3-yl)methyl)-2-(4-fluorobenzylthio)-6,7-dihydro-1H-cyclopenta[d]pyrimidin-4(5H)-one] |  |
| 95% | 92% |  | > 90% | > 80% | C[N+](C)(CCO)Cc1nnc(Cn2c(SCc3ccc(F)cc3)nc(=O)c3c2CCC3)n1Cc1ccc(-c2ccc(C(F)(F)F)cc2)cc1 [Example 122, N-((5-((2-(4-fluorobenzylthio)-4-oxo-4,5,6,7-tetrahydro-1H-cyclopenta[d]pyrimidin-1-yl)methyl)-4-((4′-(trifluoromethyl)biphenyl-4-yl)methyl)-4H-1,2,4-triazol-3-yl)methyl)-2-hydroxy-N,N-dimethylethanaminium chloride] |  |
| 93% | 94% | 98% | > 90% | > 80% | C=C(OC(C)=O)c1nnc(Cn2c(SCc3ccc(F)cc3)nc(=O)c3c2CCC3)n1Cc1ccc(-c2ccc(C(F)(F)F)cc2)cc1 [Example 119, 1-(5-((2-(4-fluorobenzylthio)-4-oxo-4,5,6,7-tetrahydro-1H-cyclopenta[d]pyrimidin-1-yl)methyl)-4-((4′-(trifluoromethyl)biphenyl-4-yl)methyl)-4H-1,2,4-triazol-3-yl)vinyl acetate] |  |
